Strand notation (5' to 3'): a small letter for the sugar, then the base; units joined by * are phosphorothioate-linked, units joined directly phosphodiester-linked; [ ] holds rarer units or linkages, { } end groups; capitals alone tell only the bases. k = constrained ethyl (cEt); [5mC] = 5-methylcytosine; d = 2'-deoxy (DNA)
What was measured:
[1] = test system: Yap1 mRNA; assay: Yap1 mRNA levels in CAL33 xenograft tumors (Example 29); format: in vivo, human; settings: CAL33 xenografts, 50 mg/kg twice weekly for two weeks, relative to PBS treated animals
Method: A xenograft tumor model was used to evaluate activity of modified oligonucleotides targeted to human Yap1. One million CAL33 cells in 30% matrigel were implanted subcutaneously into the flanks of female CrTac:NCr-Foxnlnu (Taconic) mice. When tumors reached an average volume of 100 mm^3, approximately two weeks post-implantation, groups of eight mice were administered at 50 mg/kg twice weekly with modified oligonucleotides for two weeks. ION 792169 was administered as a control.
Tumor samples were collected for measurement of Yap1 mRNA levels by RT-qPCR. Yap1 mRNA levels were measured as previously described using the Human Yap1 primer-probe set RTS4814. Yap1 mRNA levels were normalized to actin-beta content, as measured by primer probe set RTS5002. Results are presented in the tables below as percent control of the amount of Yap1 mRNA relative to PBS treated animals (% control).

[2] = test system: Yap1 mRNA; assay: Yap1 mRNA in BICR56 cells, RNA analysis (Example 33); format: cell-based, human; settings: free uptake, approximately 48 hours
Method: Modified oligonucleotides described in the studies above were tested at various doses in squamous cell carcinoma adherent keratinocyte cell line BICR56. A control oligonucleotide 792169 was also tested.
(§1) Cultured BICR56 cells at a density of 5000 cells per well were treated using free uptake with modified oligonucleotides diluted to concentrations described in the tables below. After approximately 48 hours, Yap1 mRNA levels were measured as previously described using the Human Yap1 primer-probe set RTS4814. Yap1 mRNA levels were normalized to actin-beta content, as measured by primer probe set RTS5002. Results are presented in the tables below as percent control of the amount of Yap1 mRNA relative to untreated control cells (% UTC).

[3] = test system: Yap1 mRNA; assay: Yap1 mRNA in CAL33 cells, RNA analysis (Example 36); format: cell-based, human; settings: free uptake, approximately 48 hours
Method: (§2) Modified oligonucleotides described in the studies above were tested at various doses in tongue squamous cell carcinoma line CAL33. A control oligonucleotide 792169, described herein above, was also tested.
as §1, with “CAL33” for “BICR56”

[4] = test system: SCC-4 cells; assay: Cell proliferation assay in SCC-4 cells, CellTiter-Glo (Example 39); format: cell-based, human; settings: free uptake, approximately 144 hours
Method: Modified oligonucleotides described in the studies above were tested at various doses in tongue squamous cell carcinoma cell line SCC 4. A control oligonucleotide 792169, described herein above, was also tested.
(§3) Cultured SCC-4 cells at a density of 1000 cells/well were treated using free uptake with modified oligonucleotides diluted to concentrations described in the tables below. After approximately 144 hours, cell proliferation was measured using the luminescent cell viability CellTiter-Glo® 2.0 Assay (Promega). Results are presented in the tables below as percent control of the amount of luminescence in samples treated with modified oligonucleotides relative to untreated control cells (% UTC).

[5] = test system: NCI H747 cells; assay: Cell proliferation assay in NCI H747 cells, CellTiter-Glo (Example 31); format: cell-based, human; settings: free uptake, 7 days
Method: Modified oligonucleotides described in the studies above were tested at various doses in colorectal adenocarcinoma cell line NCI H747. A control oligonucleotide 792169 was also tested.
as §3, with “NCI H747” for “SCC-4”, “3000” for “1000”, “7 days,” for “approximately 144 hours,”

[6] = test system: SCC-9 cells; assay: Cell proliferation assay in SCC-9 cells, CellTiter-Glo (Example 40); format: cell-based, human; settings: free uptake, approximately 144 hours
Method: Modified oligonucleotides described in the studies above were tested at various doses in tongue squamous cell carcinoma cell line SCC-9. A control oligonucleotide 792169, described herein above, was also tested.
as §3, with “SCC-9” for “SCC-4”

[7] = test system: UPCI:SCC090 cells; assay: Cell proliferation assay in UPCI:SCC090 cells, CellTiter-Glo (Example 47); format: cell-based, human; settings: free uptake, approximately 144 hours
Method: Modified oligonucleotides described in the studies above were tested at various doses in tongue squamous cell carcinoma cell line UPCI:SCC090. A control oligonucleotide 792169, described herein above, was also tested.
as §3, with “UPCI:SCC090” for “SCC-4”

[8] = test system: CAL33 cells; assay: Cell proliferation assay in CAL33 cells, CellTiter-Glo (Example 36); format: cell-based, human; settings: free uptake, approximately 144 hours
Method: as §2
as §3, with “CAL33” for “SCC-4”

| Substance | Yap1 mRNA levels in tumors, % control [1] | human Yap1 mRNA expression ([2]; 0.04 μM) | human Yap1 mRNA expression ([2]; 0.2 μM) | human Yap1 mRNA expression ([2]; 1 μM) | human Yap1 mRNA expression ([2]; 5 μM) | human Yap1 mRNA expression ([3]; 0.04 μM) | human Yap1 mRNA expression ([3]; 0.2 μM) | human Yap1 mRNA expression ([3]; 1 μM) | human Yap1 mRNA expression ([3]; 5 μM) | Antiproliferative effect (cell proliferation, luminescence) ([4]; 0.04 μM) | Antiproliferative effect (cell proliferation, luminescence) ([4]; 0.2 μM) | Antiproliferative effect (cell proliferation, luminescence) ([4]; 1 μM) | Antiproliferative effect (cell proliferation, luminescence) ([4]; 5 μM) | Antiproliferative effect (cell proliferation, luminescence) ([5]; 0.04 μM) | Antiproliferative effect (cell proliferation, luminescence) ([5]; 0.2 μM) | Antiproliferative effect (cell proliferation, luminescence) ([5]; 1 μM) | Antiproliferative effect (cell proliferation, luminescence) ([5]; 5 μM) | Antiproliferative effect (cell proliferation, luminescence) ([6]; 0.04 μM) | Antiproliferative effect (cell proliferation, luminescence) ([6]; 0.2 μM) | Antiproliferative effect (cell proliferation, luminescence) ([6]; 1 μM) | other results |
| --- | --- | --- | --- | --- | --- | --- | --- | --- | --- | --- | --- | --- | --- | --- | --- | --- | --- | --- | --- | --- | --- |
| 1198728 (TATTAGAGTATGTGGC; modified gapmer, further chemistry not given here) [compound 1198728] | 40 % control |  |  |  |  |  |  |  |  |  |  |  |  |  |  |  |  |  |  |  |  |
| 1198440 (AAGTGTATGTCAGAAG; cEt, 2'-MOE, 5-methylcytosine, phosphorothioate modifications, further chemistry not given here) [compound 1198440] | 12 % control | 40 % UTC | 10 % UTC | 7 % UTC | 7 % UTC | 43 % UTC | 14 % UTC | 5 % UTC | 5 % UTC | 82 % UTC | 60 % UTC | 21 % UTC | 11 % UTC | 87 % UTC | 66 % UTC | 36 % UTC | 18 % UTC | 88 % UTC | 46 % UTC | 35 % UTC | Antiproliferative effect (cell proliferation, luminescence) ([6]; 5 μM): 31 % UTC; Antiproliferative effect (cell proliferation, luminescence) ([7]; 0.04 μM): 101 % UTC; Antiproliferative effect (cell proliferation, luminescence) ([7]; 0.2 μM): 92 % UTC; Antiproliferative effect (cell proliferation, luminescence) ([7]; 1 μM): 75 % UTC; Antiproliferative effect (cell proliferation, luminescence) ([7]; 5 μM): 70 % UTC; Antiproliferative effect (cell proliferation, luminescence) ([8]; 0.04 μM): 84 % UTC; Antiproliferative effect (cell proliferation, luminescence) ([8]; 0.2 μM): 67 % UTC; Antiproliferative effect (cell proliferation, luminescence) ([8]; 1 μM): 58 % UTC; Antiproliferative effect (cell proliferation, luminescence) ([8]; 5 μM): 44 % UTC |
| CGCCGATAAGGTACAC (cEt gapmer, phosphorothioate backbone, further chemistry not given here) [ION 792169, reference compound] | 74 % control | 99 % UTC | 92 % UTC | 85 % UTC | 97 % UTC | 106 % UTC | 106 % UTC | 91 % UTC | 85 % UTC | 125 % UTC | 169 % UTC | 142 % UTC | 136 % UTC | 89 % UTC | 97 % UTC | 91 % UTC | 80 % UTC | 104 % UTC | 111 % UTC | 102 % UTC | Antiproliferative effect (cell proliferation, luminescence) ([6]; 5 μM): 94 % UTC; Antiproliferative effect (cell proliferation, luminescence) ([7]; 0.04 μM): 100 % UTC; Antiproliferative effect (cell proliferation, luminescence) ([7]; 0.2 μM): 104 % UTC; Antiproliferative effect (cell proliferation, luminescence) ([7]; 1 μM): 99 % UTC; Antiproliferative effect (cell proliferation, luminescence) ([7]; 5 μM): 93 % UTC; Antiproliferative effect (cell proliferation, luminescence) ([8]; 0.04 μM): 92 % UTC; Antiproliferative effect (cell proliferation, luminescence) ([8]; 0.2 μM): 93 % UTC; Antiproliferative effect (cell proliferation, luminescence) ([8]; 1 μM): 81 % UTC; Antiproliferative effect (cell proliferation, luminescence) ([8]; 5 μM): 67 % UTC |
| 715487 (kA*kT*kT*dA*d[5mC]*dT*dT*d[5mC]*dA*dT*dA*dG*d[5mC]*kT*kT*kA) [compound 715487] |  | 68 % UTC | 28 % UTC | 16 % UTC | 11 % UTC | 81 % UTC | 41 % UTC | 12 % UTC | 6 % UTC | 158 % UTC | 121 % UTC | 106 % UTC | 69 % UTC | 91 % UTC | 86 % UTC | 65 % UTC | 42 % UTC | 97 % UTC | 73 % UTC | 51 % UTC | Antiproliferative effect (cell proliferation, luminescence) ([6]; 5 μM): 34 % UTC; Antiproliferative effect (cell proliferation, luminescence) ([7]; 0.04 μM): 92 % UTC; Antiproliferative effect (cell proliferation, luminescence) ([7]; 0.2 μM): 94 % UTC; Antiproliferative effect (cell proliferation, luminescence) ([7]; 1 μM): 72 % UTC; Antiproliferative effect (cell proliferation, luminescence) ([7]; 5 μM): 68 % UTC; Antiproliferative effect (cell proliferation, luminescence) ([8]; 0.04 μM): 89 % UTC; Antiproliferative effect (cell proliferation, luminescence) ([8]; 0.2 μM): 79 % UTC; Antiproliferative effect (cell proliferation, luminescence) ([8]; 1 μM): 61 % UTC; Antiproliferative effect (cell proliferation, luminescence) ([8]; 5 μM): 37 % UTC |
